Laboratory results reported in patent publication US9937230B2, “Ophthalmic uses of toxin-based therapeutic peptides and pharmaceutical compositions thereof” (Kineta One, LLC, priority 2013, dated 2018).
“Also recorded” adds a separate entry of the source.

Legend:
[1] = system: T cells or macrophages from dry-eye or uveitis patients; experiment: Ex vivo proliferation of T cells or macrophages during ex vivo activation; type: cell-based, human; settings: [3H] thymidine incorporation or CFSE
From the text: (§1) In order to carry out functional assays, PBMCs from uveitis or dry eye patients and healthy controls are isolated. In the first phase of the example, the cells are either tested shortly after […] without ex vivo stimulation or activated ex vivo with anti-CD3 and anti-CD28 antibodies or mitogens and then subjected to immunostaining and multicolor flow cytometry to study expression levels of Kv1.3 channel on the surface of TEM within the CD4 and CD8+ T-cell subsets. Cells isolated from patients are expected to be high in expression of Kv1.3 without stimulation ex vivo, but this expression could increase upon activation ex vivo. […] Cytokines including IFN-γ, IL-2, IL-4, IL-10, IL-17, IL-21, and IL-22, perforin, and granzyme B are detected by intracellular staining and flow cytometry in resting or activated cells in the presence or absence of toxin-based therapeutic peptide. Additionally, they can be quantitated by an assay such as multiplexing ELISA of collected supernatants. […] This reduction can be measured by quantification of [^3H] thymidine incorporation or the fluorescent dye CFSE, among other standard immunological methods.

[2] = Local (eye) and systemic (plasma) drug levels after topical ocular administration, Sprague-Dawley rats, ELISA; type: in vivo, rat
Procedure: Three female 6-8 week old Sprague-Dawley rats (Indianapolis, Ind., USA) were dosed three times per day with topically administered 10 μL of P6N (sodium phosphate (10 mM), sodium chloride (0.8%), and Polysorbate 20 (0.05%) at pH 6.0) on the left eye (LE) and 10 μL of 0.5% ShK-186 in P6N on the right eye (RE) for 21 days. Blood was collected at 3, 7, 12, 14, 17, and 21 days and processed to plasma. […] ShK-186 levels in collected samples were measured using a standard direct ELISA method.

[3] = system: human whole blood stimulated with thapsigargin; experiment: Suppression of thapsigargin-stimulated inflammatory cytokine production in human whole blood; type: cell-based; settings: FIG. 1
From the text: (§2) This Example explores the ability of pharmaceutical compositions including toxin-based therapeutic peptides disclosed herein to reduce pro-inflammatory cytokine secretion caused by thapsigargin (Sigma-Aldrich, St. Louis, Mo., USA). Thapsigargin stimulates proinflammatory cytokine release by inhibiting the Ca2+ ion pump proteins of intracellular membranes in the sarcoplasmic reticulum and endoplasmic reticulum of microsomes. This inhibition results in a rapid release of Ca2+ stores and subsequent activation of plasma membrane calcium channels.
(§3) Preparation of primary blood cells. Whole blood and peripheral blood mononuclear cells (PBMCs) were used to test the suitability of an ShK-based therapeutic peptide as disclosed herein for treating a subject with an ophthalmic condition including dry eye. Whole blood was directly aliquoted to cell culture for experimental assays without any additional processing.
(§4) Treatment of primary blood cells. ShK-186 was serially diluted in cRPMI to 4× final concentration working stock. 50 μL of working stock was added to 6 wells of a 96-well cell culture plate per concentration of ShK-based peptide. 50 μL of cRPMI without ShK-based peptide was used as control treatment in positive control (no ShK-based peptide, thapsigargin stimulus) and in negative control (no ShK-based peptide, no thapsigargin stimulus) wells. 100 μL whole blood or 200,000 PBMCs in complete RPMI was added to each well of the 96-well cell culture plate. Cells with ShK-based peptide or media control were incubated at 37° C. and 5% CO2 for one hour. After one hour, 50 μL of 40 uM thapsigargin stimulus was added to all wells except for negative control wells which received 50 μL 0.4% DMSO to 0.1% final concentration. Cells were incubated for 48 hours.
(§5) Analysis of ShK-based peptide treated and thapsigargin stimulated cells. 48 hours after stimulation by thapsigargin, 96-well plates were centrifuged at 2000 RPM for 5 minutes. The supernatant was carefully transferred to a sterile 96-well plate for sample analysis. Cytokines were detected using specific antibodies conjugated to magnetic beads and a secondary antibody that reacts with Streptavidin/Phycoerythrin to produce a fluorescent signal. The bound beads were detected and quantified using the Magpix instrument (Luminex Corp., Austin, Tex., USA), although similar techniques as are known in the art may be used to measure protein production, such as for example an ELISA, using methods of detection including fluorescent and colorimetric methods.

[4] = system: human peripheral blood mononuclear cells (PBMCs) stimulated with thapsigargin; experiment: Suppression of thapsigargin-stimulated inflammatory cytokine production in human PBMCs; type: cell-based; settings: FIG. 2
From the text: as §2, §3
PBMCs were isolated from donor blood by density gradient centrifugation as follows. Blood was collected in collection tubes containing sodium heparin as an anticoagulant and a cell separation medium including a polyester gel and a density gradient liquid (BD Vacutainer CPT). The samples were centrifuged at 1500 RCF for 20 minutes at room temperature. The cell layer containing mononuclear cells and platelets lies just below the plasma layer and was collected into a separate 15 mL conical tube using a Pasteur Pipette. The cells were washed twice with PBS and pelleted by centrifugation to remove the supernatant. The purified PBMCs were resuspended in complete RPMI (cRPMI) cell culture media and plated to the appropriate density for the assay.
as §4, §5

[5] = system: rat model of experimental autoimmune anterior uveitis (EAAU); experiment: Melanin associated antigen (MAA) induced experimental autoimmune anterior uveitis (EAAU) model; type: in vivo
From the text: One model used to evaluate the therapeutic potential of ShK-186 in autoimmune eye diseases such as uveitis was the melanin associated antigen (MAA) induced experimental autoimmune anterior uveitis (EAAU). In this model, male Lewis rats 5-10 week old (Charles River) are immunized with MAA emulsified in complete Freund's adjuvant (CFA) subcutaneously and also receive a single intraperitoneal injection of pertussis toxin (0.2 to 1 mcg/animal). Symptoms of disease begin to appear by day 10 and peak by day 18 post immunization. The animals typically recover by day 25.
Preparation of the MAA. MAA was prepared following the procedure outlined by Simpsom et al., Eye 11, 206-208, (1997) with some modifications. The iris and ciliary body structure were dissected from 25 fresh pigmented cow eyes. The tissue was cut into small pieces and then homogenized in cold PBS. The homogenate was spun at 4000 g for 10 minutes, washed three times with PBS and then put through a detergent extraction with 2% Triton X-100, rotating for 3 hours at room temperature. The resulting material was again spun and washed three times with PBS and subject to another detergent extraction this time using 2% SDS, rotating for 3 hours at 37° C. This material was washed three times with PBS followed by three washes with H2O and a final wash with 70% ethanol. The MAA pellet was placed under a vacuum for approximately 15 min, resulting in dried antigen material stored frozen at −20° C.
Preparation of MAA:CFA emulsions. For the emulsion used for the experiment whose results are shown in FIG. 4, 50 milligrams of MAA were resuspended in 3.8 mL of PBS, and after vortexing briefly the suspension, was sonicated for 30 seconds three times incubating on ice for 30 seconds in between. This slurry was passed through a 100 μm cell strainer, thicker material was pressed through using a syringe plunger. The protein content of the suspension was determined to be 3.27 mg/mL using a commercially available BCA kit (Pierce 23225), and was stored frozen at −20° C. until use. On the day of immunization (day 0), the stock MAA was thawed at room temperature and vortexed briefly before a working dilution of 600 μg/mL was made. This solution was then mixed drop wise 1:1 with CFA while vortexing, for a final antigen concentration of 300 μg/mL (or 30 μg per animal). Emulsions were allowed to vortex an additional 5 minutes before being loaded into syringes and passed through an 18 G emulsifying bridge until very thick. Emulsions were injected the same day, 50 μL subcutaneous to each footpad, 100 μL total per animal, according to group. FIGS. 4A-D show the pathology associated with this disease model and the effects of ShK-186 topical administration on the occurrence and severity of disease.
Eyes were given individual scores based on pupil function (miosis), iris structure, presence of cells in the anterior chamber, and presence of protein in the anterior chamber (flare). Scores were then converted into a composite clinical score for each day.
For this analysis, sections of eyes previously fixed in 10% formalin were scored for iris and ciliary body structure and the degree of inflammatory cell infiltration to the stroma of the iris and/or ciliary body and anterior chamber according to disease parameters outlined by Kim et al., supra (1997); this was done by an independent veterinary pathologist. In FIG. 4C (1.) a control healthy eye (10×) is shown; (2.) & (4.) show the eye from an animal treated with vehicle that was scored a 2 (10×, 40×); (3.) & (5.) show the eye from an animal treated three times daily with 0.1% ShK-186 for 8 days followed by 1% ShK-186 for 10 days which was given a histopathology score of 0 (10×, 40×).
Clinical observations were made of each animal using a slit lamp on day 13 post induction of EAAU by immunization with an adjuvanted MAA emulsion. […]

[6] = system: unstimulated or activated T cells or macrophages from dry-eye or uveitis patients; experiment: Ex vivo cytokine expression in T cells or macrophages from dry eye or uveitis patients; type: cell-based, human; settings: ex vivo addition of ShK-186, intracellular staining/flow cytometry or multiplexing ELISA
From the text: as §1

[7] = whole blood treated with ShK-186 one hour prior to thapsigargin, supernatant 48 hours after stimulation
[8] = whole blood, thapsigargin stimulation
[9] = PBMCs treated with ShK-186 one hour prior to thapsigargin, supernatant 48 hours after stimulation
[10] = PBMCs, thapsigargin stimulation
[11] = day 18 post immunization, 0.1% then 1% ShK-186 topically

## (L-PhosphoTyr)-AEEAc-RSCIDTIPKSRCTAFQCKHSMKYRLSFCRKTCGTC-amide [ShK-186]
[1]
  ex vivo proliferation of T cells or macrophages: significantly reduces
[2]; 0.5% ShK-186 topically to right eye three times per day for 21 days
  ShK-186 in plasma (systemic exposure): no detectable and not
[2]; 10 μL of 0.5% ShK-186 in P6N topically three times per day for 21 days, samples at 21 days
  ShK-186 concentration in aqueous fluid of the treated right eye (RE): significant concentrations
[2]; right eye dosed 0.5% ShK-186 three times per day for 21 days, left eye vehicle
  ShK-186 in samples from the untreated left eye (LE): no detectable
[3]; [7]
  suppression of IFN-γ level: dose-dependent manner; also recorded: suppressed
  suppression of IL-2 level: dose-dependent manner; also recorded: suppressed
  suppression of IL-4 level: dose-dependent manner; also recorded: suppressed
  suppression of IL-17 level: dose-dependent manner; also recorded: suppressed
[3]; [8]
  IC50, IFN-γ suppression: picomolar range
  IC50, IL-2 suppression: picomolar range
  IC50, IL-4 suppression: picomolar range
  IC50, IL-17 suppression: picomolar range
[4]; [9]
  suppression of IFN-γ level: suppressed; also recorded: dose-dependent manner
  suppression of IL-2 level: suppressed; also recorded: dose-dependent manner
  suppression of IL-4 level: suppressed; also recorded: dose-dependent manner
  suppression of IL-17 level: suppressed; also recorded: dose-dependent manner
[4]; [10]
  IC50, IFN-γ suppression: picomolar range
  IC50, IL-2 suppression: picomolar range
  IC50, IL-4 suppression: picomolar range
  IC50, IL-17 suppression: picomolar range
[5]; ShK-186 topical administration versus vehicle (P6N), FIG. 4B
  gross pathology: reduced
[5]; day 18 post immunization, 0.1% ShK-186 for 9 days then 1% for 10 days topically, vehicle animal 3-2 scored 13
  composite clinical score of animal 4-8: 0
[5]; [11]
  cells in the anterior chamber score of animal 4-8: 0
  iris vessels and structure score of animal 4-8: 0
  protein in the anterior chamber (flare) score of animal 4-8: 0
  pupil score of animal 4-8: 0
[5]; eyes collected day 19 post immunization, H&E sections, FIG. 4C
  histopathology: reduces
[5]; slit lamp, days 11, 13, 15, 18 post induction, topical three times daily 0.1% day 0-8 and 1% ShK-186 day 9-18, N=8 rats/16 eyes
  composite clinical score versus vehicle: significantly lower
[5]; three times daily 0.1% ShK-186 followed by 1% ShK-186 for 10 days, vehicle eye scored 2
  histopathology score of an eye from a treated animal: 0
[6]
  expression of cytokines (IFN-γ, IL-2, IL-4, IL-10, IL-17, IL-21, IL-22, perforin, granzyme B): significantly reduces

## (L-Tyr)-AEEAc-RSCIDTIPKSRCTAFQCKHSMKYRLSFCRKTCGTC-amide [ShK-198]
[5]; slit lamp day 13 post induction, 1% ShK-198 topically three times daily versus P6N vehicle, N=10 rats/20 eyes
  clinical score (cells in the anterior chamber; protein in the anterior chamber or flare): reduces
